Test results taken from the NIST ThermoML archive (doi:10.1016/j.fluid.2014.06.021).
± gives the expanded uncertainty stated by the source.

Conditions: 101.33 kPa, Liquid, Vibrating tube method

C[n+]1ccn(CCCCS(=O)(=O)O)c1.O=S(=O)([N-]S(=O)(=O)C(F)(F)F)C(F)(F)F
Conditions	mass density [kg/m3]
298.15 K	1577 ± 2
299.45 K	1575.8 ± 2.3
300.75 K	1574.9 ± 2.3
302.15 K	1573.7 ± 2.3
303.45 K	1572.7 ± 2.3
304.75 K	1571.5 ± 2.3
305.85 K	1570.5 ± 2.3
307.15 K	1569.2 ± 2.3
308.65 K	1568 ± 2
310.35 K	1566.7 ± 2.2
311.75 K	1565.5 ± 2.2
313.05 K	1564.3 ± 2.2
314.45 K	1563.2 ± 2.2
315.85 K	1562 ± 2
317.25 K	1560.9 ± 2.2
318.75 K	1559.8 ± 2.2
320.05 K	1558.8 ± 2.2
321.45 K	1557.7 ± 2.2
322.85 K	1556.4 ± 2.2
324.65 K	1554.8 ± 2.2
326.65 K	1553.4 ± 2.2
328.45 K	1551.8 ± 2.2
338.55 K	1543.9 ± 2.2
343.5 K	1539.7 ± 2.2

C[n+]1ccn(CCCCS(=O)(=O)O)c1.O=S(=O)([O-])C(F)(F)F
Conditions	mass density [kg/m3]
298.15 K	1478.4 ± 2
299.45 K	1478 ± 2
300.75 K	1477 ± 2
302.15 K	1476.1 ± 2
303.45 K	1475.3 ± 2
304.75 K	1474.7 ± 2
305.85 K	1473.8 ± 2
307.15 K	1472.8 ± 2
308.65 K	1472 ± 2
310.35 K	1470.9 ± 2
311.75 K	1470.1 ± 2
313.05 K	1469.3 ± 2
314.45 K	1468.2 ± 2
315.85 K	1467.3 ± 2
317.25 K	1466.3 ± 2
318.75 K	1465.6 ± 2
320.05 K	1464.8 ± 2
321.45 K	1463.7 ± 2
322.85 K	1462.7 ± 1.9
324.65 K	1461.5 ± 1.9
326.65 K	1461.3 ± 1.9
328.45 K	1460.2 ± 1.9
338.55 K	1453.7 ± 1.9
343.5 K	1450.6 ± 1.9

C[n+]1ccn(CCCCS(=O)(=O)O)c1.O=S(=O)([O-])O [1-methyl-3-(4-sulfobutyl)-imidazolium hydrogensulfate]
Conditions	mass density [kg/m3]
298.15 K	1437.7 ± 1.9
299.45 K	1436.9 ± 1.9
300.75 K	1436.3 ± 1.9
302.15 K	1435.4 ± 1.9
303.45 K	1434.8 ± 1.9
304.75 K	1434 ± 2
305.85 K	1433.3 ± 1.9
307.15 K	1432.4 ± 1.9
308.65 K	1431.7 ± 1.9
310.35 K	1430.8 ± 1.9
311.75 K	1430 ± 2
313.05 K	1429.3 ± 1.9
314.45 K	1428.5 ± 1.9
315.85 K	1427.8 ± 1.9
317.25 K	1426.9 ± 1.8
318.75 K	1426.4 ± 1.8
320.05 K	1425.8 ± 1.8
321.45 K	1424.7 ± 1.8
322.85 K	1423.9 ± 1.8
324.65 K	1423.2 ± 1.8
326.65 K	1422.1 ± 1.8
328.45 K	1421.2 ± 1.8
338.55 K	1414.5 ± 1.8
343.5 K	1411.7 ± 1.8
